Measurements taken from patent publication US5807860A, “Urea derivatives” (Mitsubishi Chemical Corporation, priority 1995, dated 1998).

Legend:
ACAT of HepG2 cells = molecular target: T1, ACAT of HepG2 cells (Homo sapiens, UniProt P35610); test: Inhibitory activity against ACAT of HepG2 cells derived from human liver cancer cells; format: cell-based; settings: radio-labelled oleic acid/BSA complex, cholesterol oleate produced
T1 construct: endogenous in cells; host or cells: HepG2
T1 sequence (P35610 1-550): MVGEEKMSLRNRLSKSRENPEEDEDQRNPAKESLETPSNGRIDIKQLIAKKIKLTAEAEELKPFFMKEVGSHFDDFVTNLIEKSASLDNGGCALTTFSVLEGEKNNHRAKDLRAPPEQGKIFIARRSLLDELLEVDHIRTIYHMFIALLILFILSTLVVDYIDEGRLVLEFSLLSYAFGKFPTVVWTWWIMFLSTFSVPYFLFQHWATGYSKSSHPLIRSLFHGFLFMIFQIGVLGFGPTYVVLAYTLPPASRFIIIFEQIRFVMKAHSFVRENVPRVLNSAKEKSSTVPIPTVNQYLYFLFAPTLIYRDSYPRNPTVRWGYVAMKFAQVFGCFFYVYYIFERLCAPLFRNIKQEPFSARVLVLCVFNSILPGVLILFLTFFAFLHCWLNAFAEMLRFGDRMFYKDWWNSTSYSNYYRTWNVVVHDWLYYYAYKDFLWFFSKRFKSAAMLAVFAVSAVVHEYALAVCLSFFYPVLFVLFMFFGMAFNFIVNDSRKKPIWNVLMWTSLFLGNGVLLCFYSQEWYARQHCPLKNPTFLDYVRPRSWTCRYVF
Experimental: Inhibitory Activity against ACAT of HepG2 cells Derived from Human Liver Cancer Cells Inhibitory activities of the compounds of the present invention against ACAT were measured by the method described below. HepG2 cells derived from human liver cancer cells were used for the measurement of the ACAT activity. A complex of radio-labelled oleic acid and bovine serum albumin was added to a culture of the cells, and the activity was measured by observing the amount of radio-labelled cholesterol oleate produced from the radio-labelled oleic acid in the cells.

[1] = tested on: high cholesterol fed WISTAR male rats (total cholesterol in the serum); test: Cholesterol reduction activity in high cholesterol fed rats; format: in vivo, rat (WISTAR); settings: Rattus norvegicus, once a day for 5 days, 3.5 hours after final administration, probit analysis
Experimental: Cholesterol Reduction Activity in High Cholesterol Fed Rats
6-Week old WISTAR male rats were fed with high cholesterol solid feedstuff (Oriental Kobo Co., Ltd., 1% cholesterol, 0.5% cholic acid). Each group consisted of seven rats was compulsorily administered with 0.2% aqueous solution of a test compound (compound of Example 3) once a day at a dose of 1 mg/kg, 3 mg/kg, 10 mg/kg, or 30 mg/kg for 5 days. One group consisted of seven rats was fed with the same high cholesterol feedstuff and used as a control group. After 3.5 hours from the final administration, blood was collected from the abdominal aorta and the total cholesterol in the serum was measured. The reduction rate of total cholesterol was represented as a ratio between a control group not administered with the drug (seven rats) and examined by the probit analysis.

[2] = Moisture absorption under ambient atmosphere (Karl Fisher method); format: physicochemical; settings: kept under ambient atmosphere for 2 days
Text: Among these compounds, compounds having higher hygroscopic properties may absorb moisture when kept under ambient atmosphere to form substances represented by the following formula: [drawing 15] wherein R1, R2, R3, R4, R5, R6, k, l, and Y are the same as those defined above; symbol "a" represents 0 or an arbitrary integer or represents an arbitrary fraction; and symbol "b" represents an arbitrary integer or an arbitrary fraction. For example, 3.3% weight increase was observed by Karl Fisher method after N-{5-(1-imidazolyl)-2-methoxyphenyl}methyl-N-(1-pentyl)-N'-[2-{3-(4-phenyl-1-piperazinyl)propoxy}-6-methylphenyl]urea dihydrochloride obtained in Example 3 was kept under ambient atmosphere for 2 days.

IC50 (ACAT of HepG2 cells): 108 nM
weight increase (moisture absorption) [2]: 3.3%
Compound: CCCCCN(Cc1cc(-n2ccnc2)ccc1OC)C(=O)Nc1c(C)cccc1OCCCN1CCN(c2ccccc2)CC1.Cl.Cl [Example 3, N-{5-(1-imidazolyl)-2-methoxyphenyl}methyl-N-(1-pentyl)-N'-[2-{3-(4-phenyl-1-piperazinyl)propoxy}-6-methylphenyl]urea dihydrochloride]
ED10 ([1]; 10% reduction of serum total cholesterol vs control, read-out: Dose of test compound for total cholesterol reduction rate 10%): 1.9 mg/kg
ED20 ([1]; 20% reduction of serum total cholesterol vs control, read-out: Dose of test compound for total cholesterol reduction rate 20%): 3.6 mg/kg
ED25 ([1]; 25% reduction of serum total cholesterol vs control, read-out: Dose of test compound for total cholesterol reduction rate 25%): 4.6 mg/kg
ED30 ([1]; 30% reduction of serum total cholesterol vs control, read-out: Dose of test compound for total cholesterol reduction rate 30%): 5.7 mg/kg
ED50 ([1]; 50% reduction of serum total cholesterol vs control, read-out: Dose of test compound for total cholesterol reduction rate 50%): 12.1 mg/kg
